Laboratory results from patent US20230202985A1, “Indoles, Indazoles, and Related Analogs for Inhibiting YAP/TAZ-TEAD” (THE KATHOLIEKE UNIVERSITEIT LEUVEN, priority 2021, published 2023).

Test system: YAP/TAZ-TEAD transcription
Assay: Reporter gene assay for measuring the inhibition of YAP/TAZ-TEAD transcription (TEAD-responsive element luciferase reporter in Hek293T cells)
Format: cell-based
Conditions: Homo sapiens, HEK-293T; Hek293T cells transfected with TEAD-responsive luciferase reporter, 24 hours incubation
Method: Hek293T cells are cultured in DMEM supplemented with 10% fetal bovine serum, Sodium pyruvate, Sodium bicarbonate, L-glutamine. The cells are harvested and transiently transfected with TEAD-responsive element luciferase reporter. Transfected cells are plated in 384-wells plate containing pre-diluted compounds. After 24 hours incubation at 37° C./5% CO2, assay plates were cooled down to RT and levelled to an equal volume per well, prior to the addition of 25 uL luciferase substrate SteadyLite (Perkin Elmer)/well. The plate was shaken for 10 min at 600 rpm, centrifuged for 1 min at 500 rpm and measured with an Envision reader (PerkinElmer). The amount of relative light units produced by the TEAD reporter is used to calculated percent of inhibition.
The percent of reporter inhibition was calculated in the presence of a positive control inhibitor (100% inhibition) versus a condition with the presence of the vehicle basal activity of the reporter (0% inhibition). The ability of a test compound to inhibit this activity was determined as:
Percentage inhibition=[1−((RLU determined in the presence of vehicle−RLU determined for sample with test compound present) divided by (RLU determined in the presence of vehicle−RLU determined for sample with positive control inhibitor))]*100
The activities of example compounds tested are depicted in Table 6. The activity ranges A, B and C refer to IC50 values in the reporter gene assay as follows: “A”: IC50<1 μM; “B”: 1 μM≤IC50≤20 μM and “C”: IC50>20 μM; NT=not tested.

| SMILES | EC50 [µM] |
| --- | --- |
| CCC(=O)NCc1cc2ccccc2n1-c1ccc(C(F)(F)F)cc1 [compound 30, N-((1-(4-(trifluoromethyl)phenyl)-1H-indol-2-yl)methyl)propionamide] | > 20 |
| CC(=O)NC1C(=O)N(c2ccc(C(F)(F)F)cc2)c2ccccc21 (stereo not drawn) [compound 34, N-(2-oxo-1-(4-(trifluoromethyl)phenyl)indolin-3-yl)acetamide] | > 20 |
| Cn1ccc(-c2cc(-c3ccccc3)cn3cc(CC(=O)O)nc23)n1 [compound 35, 2-(8-(1-methyl-1H-pyrazol-3-yl)-6-phenylimidazo[1,2-a]pyridin-2-yl)acetic acid] | > 20 |
| O=C(O)Cc1cn2cc(-c3ccccc3)cc(-c3cnn(Cc4cccnc4)c3)c2n1 [compound 36, 2-(6-phenyl-8-(1-(pyridin-3-ylmethyl)-1H-pyrazol-4-yl)imidazo[1,2-a]pyridin-2-yl)acetic acid] | > 20 |
| CNC(=O)Cc1cn2cc(-c3ccccc3)cc(-c3ccn(C)n3)c2n1 [compound 37, N-methyl-2-(8-(1-methyl-1H-pyrazol-3-yl)-6-phenylimidazo[1,2-a]pyridin-2-yl)acetamide] | > 20 |
| Cn1ccc(-c2cc(Nc3ccccc3)cn3cc(CC(=O)O)nc23)n1 [compound 38, 2-(8-(1-methyl-1H-pyrazol-3-yl)-6-(phenylamino)imidazo[1,2-a]pyridin-2-yl)acetic acid] | > 20 |
| CNC(=O)Cc1cn2cc(Nc3ccccc3)cc(-c3ccn(C)n3)c2n1 [compound 39, N-methyl-2-(8-(1-methyl-1H-pyrazol-3-yl)-6-(phenylamino)imidazo[1,2-a]pyridin-2-yl)acetamide] | > 20 |
| CS(=O)(=O)NCc1nn(-c2ccc(C(F)(F)F)cc2)c2ccc(OCC#N)cc12 [compound 42, N-[[5-(cyanomethoxy)-1-[4-(trifluoromethyl)phenyl]indazol-3-yl]methyl]methanesulfonamide] | > 20 |
| CCC(=O)NCc1nn(-c2ccc(C(F)(F)F)cc2)c2ccc(Oc3cc(=O)[nH]c(=O)n3C)cc12 [compound 53, N-[[5-(3-methyl-2,6-dioxo-pyrimidin-4-yl)oxy-1-[4-(trifluoromethyl)phenyl]indazol-3-yl]methyl]propanamide] | > 20 |
| CCC(=O)NCc1nn(-c2ccc(C(F)(F)F)cc2)c2ccc(OCc3ccccc3)cc12 [compound 55, N-[[5-benzyloxy-1-[4-(trifluoromethyl)phenyl]indazol-3-yl]methyl]propanamide] | > 20 |
| Cn1c(Oc2ccc3c(c2)c(CNS(C)(=O)=O)nn3-c2ccc(C(F)(F)F)cc2)cc(=O)[nH]c1=O [compound 60, N-[[5-(3-methyl-2,6-dioxo-pyrimidin-4-yl)oxy-1-[4-(trifluoromethyl)phenyl]indazol-3-yl]methyl]methanesulfonamide] | > 20 |
| CCC(=O)NCc1nn(-c2ccc(C(F)(F)F)cc2)c2cc(OC3CC3)ccc12 [compound 62, N-[[6-(cyclopropoxy)-1-[4-(trifluoromethyl)phenyl]indazol-3-yl]methyl]propanamide] | > 20 |
| C#CCOc1ccc2c(c1)c(CNC(=O)CC)nn2-c1ccc(C(F)(F)F)cc1 [compound 64, N-[[5-prop-2-ynoxy-1-[4-(trifluoromethyl)phenyl]indazol-3-yl]methyl]propanamide] | > 20 |
| C#CCOc1ccc2c(c1)c(CNS(C)(=O)=O)nn2-c1ccc(C(F)(F)F)cc1 [compound 65, N-[[5-prop-2-ynoxy-1-[4-(trifluoromethyl)phenyl]indazol-3-yl]methyl]methanesulfonamide] | > 20 |
| CCC(=O)NCc1nn(-c2ccc(C(F)(F)F)cc2)c2ccc(OCC3CC3)cc12 [compound 67, N-[[5-(cyclopropylmethoxy)-1-[4-(trifluoromethyl)phenyl]indazol-3-yl]methyl]propanamide] | > 20 |
| O=C(O)COc1cccc2c1cnn2-c1ccc(C(F)(F)F)cc1 [compound 69, 2-[1-[4-(trifluoromethyl)phenyl]indazol-4-yl]oxyacetic acid] | > 20 |
| CC(=O)NCc1nn(-c2ccc(C(F)(F)F)cc2)c2cc(C(F)(F)F)ccc12 [compound 75, N-[[6-(trifluoromethyl)-1-[4-(trifluoromethyl)phenyl]indazol-3-yl]methyl]acetamide] | > 20 |

The next lines start with the values.

| EC50 [µM] | SMILES |
| --- | --- |
| 1 to 20 | C=CC(=O)Nc1cn(-c2ccccc2)c2ccccc12 [compound 22, N-(1-phenyl-1H-indol-3-yl)acrylamide] |
| < 1 | C=CC(=O)Nc1cn(-c2ccc(C(C)C)cc2)c2ccccc12 [compound 23, N-(1-(4-isopropylphenyl)-1H-indol-3-yl)acrylamide] |
| < 1 | C=CC(=O)Nc1cn(-c2ccc(Cl)cc2)c2ccccc12 [compound 24, N-(1-(4-chlorophenyl)-1H-indol-3-yl)acrylamide] |
| 1 to 20 | C=CC(=O)Nc1cn(-c2cccc(Cl)c2)c2ccccc12 [compound 25, N-(1-(3-chlorophenyl)-1H-indol-3-yl)acrylamide] |
| < 1 | C=CC(=O)Nc1cn(-c2ccc(-c3ccccc3)cc2)c2ccccc12 [compound 26, N-(1-([1,1′-biphenyl]-4-yl)-1H-indol-3-yl)acrylamide] |
| 1 to 20 | CCC(=O)NCc1cn(-c2ccc(C(F)(F)F)cc2)c2ccccc12 [compound 28, N-((1-(4-(trifluoromethyl)phenyl)-1H-indol-3-yl)methyl)propionamide] |
| < 1 | C=CC(=O)NCc1cc2ccccc2n1Cc1cccc(C(F)(F)F)c1 [compound 32, N-((1-(3-(trifluoromethyl)benzyl)-1H-indol-2-yl)methyl)acrylamide] |
| 1 to 20 | C=CC(=O)NC1C(=O)N(c2ccc(C(F)(F)F)cc2)c2ccccc21 (stereo not drawn) [compound 33, N-(2-oxo-1-(4-(trifluoromethyl)phenyl)indolin-3-yl)acrylamide] |
| < 1 | C=CC(=O)NCc1nn(-c2ccc(C(F)(F)F)cc2)c2ccncc12 [compound 41, N-((1-(4-(trifluoromethyl)phenyl)-1H-pyrazolo[4,3-c]pyridin-3-yl)methyl)acrylamide] |
| < 1 | C=CC(=O)NCc1nn(-c2ccc(C(F)(F)F)cc2)c2ccc(Oc3cc(=O)[nH]c(=O)n3C)cc12 [compound 51, N-[[5-(3-methyl-2,6-dioxo-pyrimidin-4-yl)oxy-1-[4-(trifluoromethyl)phenyl]indazol-3-yl]methyl]prop-2-enamide] |
| 1 to 20 | CS(=O)(=O)NCc1nn(-c2ccc(C(F)(F)F)cc2)c2ccc(OCc3cc[nH]n3)cc12 [compound 52, N-[[5-(1H-pyrazol-3-ylmethoxy)-1-[4-(trifluoromethyl)phenyl]indazol-3-yl]methyl]methanesulfonamide] |
| 1 to 20 | CS(=O)(=O)NCc1nn(-c2ccc(C(F)(F)F)cc2)c2ccc(OCc3ccccc3)cc12 [compound 56, N-[[5-benzyloxy-1-[4-(trifluoromethyl)phenyl]indazol-3-yl]methyl]methanesulfonamide] |
| 1 to 20 | N#CCS(=O)(=O)NCc1nn(-c2ccc(C(F)(F)F)cc2)c2ccccc12 [compound 57, 1-cyano-N-[[1-[4-(trifluoromethyl)phenyl]indazol-3-yl]methyl]methanesulfonamide] |
| 1 to 20 | CS(=O)(=O)NCc1nn(-c2ccc(C(F)(F)F)cc2)c2cc(OC3CC3)ccc12 [compound 61, N-[[6-(cyclopropoxy)-1-[4-(trifluoromethyl)phenyl]indazol-3-yl]methyl]methanesulfonamide] |
| < 1 | CS(=O)(=O)NCc1nn(-c2ccc(C(F)(F)F)cc2)c2ccc(OCC3CC3)cc12 [compound 68, N-[[5-(cyclopropylmethoxy)-1-[4-(trifluoromethyl)phenyl]indazol-3-yl]methyl]methanesulfonamide] |
| < 1 | C=C(CNc1nn(-c2ccc(C(F)(F)F)cc2)c2ccccc12)C(=O)O [compound 70, 2-[[[1-[4-(trifluoromethyl)phenyl]indazol-3-yl]amino]methyl]prop-2-enoic acid] |
| 1 to 20 | CC(=O)NCc1nn(-c2ccc(C(F)(F)F)cc2)c2ccc(C(F)(F)F)cc12 [compound 72, N-[[5-(trifluoromethyl)-1-[4-(trifluoromethyl)phenyl]indazol-3-yl]methyl]acetamide] |
| 1 to 20 | CS(=O)(=O)NCc1nn(-c2ccc(C(F)(F)F)cc2)c2ccc(C(F)(F)F)cc12 [compound 73, N-[[5-(trifluoromethyl)-1-[4-(trifluoromethyl)phenyl]indazol-3-yl]methyl]methanesulfonamide] |
| 1 to 20 | CS(=O)(=O)NCc1nn(-c2ccc(C(F)(F)F)cc2)c2cc(C(F)(F)F)ccc12 [compound 76, N-[[6-(trifluoromethyl)-1-[4-(trifluoromethyl)phenyl]indazol-3-yl]methyl]methanesulfonamide] |
